In US11285156B2, “Substituted piperazines as KRAS G12C inhibitors” (Amgen Inc., priority 2018, dated 2022):
Like-named read-outs stand apart in the source and are kept apart here.

Key:
[1] = biological target: GDP-bound KRAS protein (aa 1-169), containing both G12C and C118A amino acid substitutions (Homo sapiens (Human), UniProt P01116, C118A/G12C); test: Coupled nucleotide exchange assay (SOS-mediated nucleotide exchange, AlphaScreen); assay type: biochemical; conditions: 5 min compound pre-incubation; for IC50: read-out: Coupled exchange IC50 (5 min; μM)
[2] = tested on: Phosphorylation of ERK1/2 in MIA PaCa-2 cells; test: Phospho-ERK1/2 MSD assay in MIA PaCa-2 cells; assay type: cell-based; conditions: read-out: p-ERK IC50 (2 h, MiaPaCa-2; μM), 2 h compound treatment, MIA PaCa-2 cells, EGF stimulated
Method: Phospho-ERK1/2 MSD Assay:
Sixteen hours prior to compound treatment, MIA PaCa-2 or A549 cells were seeded in 96-well cell culture plates at a density of 25,000 cells/well and incubated at 37° C., 5% CO2. A compound dose-response titration was diluted in growth media, added to appropriate wells of a cell culture plate, and then incubated at 37° C., 5% CO2 for 2 or 4 hours (see Table 15). Following compound treatment, cells were stimulated with 10 ng/mL EGF (Roche 11376454001) for 10 min, washed with ice-cold Dulbecco's phosphate-buffered saline, no Ca2+ or Mg2+ (ThermoFisher Scientific 14190144), and then lysed in RIPA buffer (50 mM Tris-HCl pH 7.5, 1% Igepal, 0.5% sodium deoxycholate, 150 mM NaCl. and 0.5% sodium dodecyl sulfate) containing protease inhibitors (Roche 4693132001) and phosphatase inhibitors (Roche 4906837001). Phosphorylation of ERK1/2 in compound-treated lysates was assayed using Phospho-ERK1/2 Whole Cell Lysate kits (Meso Scale Discovery K151DWD) according to the manufacturer's protocol.

GDP-bound KRAS protein (aa 1-169), containing both G12C and C118A amino acid substitutions, sequence (P01116 other isoform, or with tags, fused parts or gaps G12C/C118A): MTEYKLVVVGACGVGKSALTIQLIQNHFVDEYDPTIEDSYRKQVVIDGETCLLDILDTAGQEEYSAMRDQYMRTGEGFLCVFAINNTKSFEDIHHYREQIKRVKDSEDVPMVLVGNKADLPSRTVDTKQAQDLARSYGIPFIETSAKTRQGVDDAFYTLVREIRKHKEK

Structure (SMILES) | IC50 [1] | further results
C=CC(=O)N1[C@H](C)CN(c2nc(=O)n(-c3c(C)cc(N)nc3C(C)C)c3nc(-c4c(N)cccc4F)c(F)cc23)C[C@@H]1C (single isomer, unassigned) [Example 123-5] | 7.53 µM | IC50 [2]: 10 µM
C=CC(=O)N1CCN(c2nc(=O)n(CC(C)(C)O)c3nc(-c4ccccc4F)c(Cl)cc23)CC1 [Example 180, 4-(4-Acryloylpiperazin-1-yl)-6-chloro-7-(2-fluorophenyl)-1-(2-hydroxy-2-methylpropyl)pyrido[2,3-d]pyrimidin-2(1H)-one] | – | Coupled exchange IC50 (5 min; μM) [1]: 85.1 µM; IC50 ([2]; Homo sapiens, MIA PaCa-2, 2 h): 10 µM
C=CC(=O)N1C[C@H](C)N(c2nc(=O)n(-c3c(N(C)C)ccnc3C(C)C)c3nc(-c4c(F)cccc4NC(=O)CC)c(Cl)cc23)C[C@H]1C [Example 122-2, N-[2-[6-Chloro-1-[4-(dimethylamino)-2-isopropyl-3-pyridyl]-4-[(2S,5R)-2,5-dimethyl-4-prop-2-enoyl-piperazin-1-yl]-2-oxo-pyrido[2,3-d]pyrimidin-7-yl]-3-fluoro-phenyl]propanamide] | 0.357 µM | IC50 ([2]; Homo sapiens, MIA PaCa-2, 2 h): 1.21 µM
C=CC(=O)N1C[C@H](C)N(c2nc(=O)n(-c3c(C)cc(S(C)(=O)=O)cc3C(C)C)c3nc(-c4ccccc4F)c(Cl)cc23)C[C@H]1C [Example 215, 4-((2S,5R)-4-Acryloyl-2,5-dimethylpiperazin-1-yl)-6-chloro-7-(2-fluorophenyl)-1-(2-isopropyl-6-methyl-4-(methylsulfonyl)phenyl)pyrido[2,3-d]pyrimidin-2(1H)-one] | 0.076 µM | IC50 ([2]; Homo sapiens, MIA PaCa-2, 2 h): 0.275 µM
C=CC(=O)N1C[C@H](C)N(c2nc(=O)n3c4nc(c(Cl)cc24)-c2ccccc2C/C=C/Cc2cccc(C(C)C)c2-3)C[C@H]1C (single isomer, unassigned) [Example 146-2-1] | 0.025 µM | IC50 [2]: 0.024 µM
C=CC(=O)N1C[C@H](C)N(c2nc(=O)n(-c3c(C)ncnc3C(C)C)c3nc(-c4ccccc4F)c(Cl)cc23)C[C@H]1C (single isomer, unassigned) [Example 194-2] | – | Coupled exchange IC50 (5 min; μM) [1]: 1.45 µM
C=CC(=O)N1C[C@H](C)N(c2nc(=O)n(-c3c(C)ccnc3C(C)C)c3nc(-c4cccnc4C4CC4)c(Cl)cc23)C[C@H]1C (atropisomer, axis not shown; (M)) [Example 92-69, (M)-6-Chloro-7-(2-cyclopropyl-3-pyridyl)-4-[(2S,5R)-2,5-dimethyl-4-prop-2-enoyl-piperazin-1-yl]-1-(2-isopropyl-4-methyl-3-pyridyl)pyrido [2,3-d]pyrimidin-2-one] | 1.36 µM | –
C=CC(=O)N1C[C@H](C)N(c2nc(=O)n(-c3c(C(C)C)cc(N4CCC4)nc3C(C)C)c3nc(-c4ccccc4F)c(Cl)cc23)C[C@H]1C [Example 182, 4-((2S,5R)-4-Acryloyl-2,5-dimethylpiperazin-1-yl)-1-(6-(azetidin-1-yl)-2,4-diisopropylpyridin-3-yl)-6-chloro-7-(2-fluorophenyl)pyrido[2,3-d]pyrimidin-2(1H)-one] | – | Coupled exchange IC50 (5 min; μM) [1]: 8.794 µM
C=CC(=O)N1C[C@H](C)N(c2nc(=O)n(-c3c(C)ccnc3C(C)C)c3nc(-c4ccccc4P(C)(C)=O)c(F)cc23)C[C@H]1C (atropisomer, axis not shown; (M)) [Example 72-23, (M)-7-(2-Dimethylphosphorylphenyl)-4-[(2S,5R)-2,5-dimethyl-4-prop-2-enoyl-piperazin-1-yl]-6-fluoro-1-(2-isopropyl-4-methyl-3-pyridyl)pyrido[2,3-d]pyrimidin-2-one] | 0.647 µM | –
C=CC(=O)N1C[C@H](C)N(c2nc(=O)n(-c3c(C)ccnc3C(C)C)c3nc(C=C(C)C)c(Cl)cc23)C[C@H]1C (atropisomer, axis not shown; (M)) [Example 92-8, (M)-6-Chloro-4-[(2S,5R)-2,5-dimethyl-4-prop-2-enoyl-piperazin-1-yl]-1-(2-isopropyl-4-methyl-3-pyridyl)-7-(2-methylprop-1-enyl)pyrido[2,3-d]pyrimidin-2-one] | 0.985 µM | –
C=CC(=O)N1C[C@H](C)N(c2nc(=O)n(-c3c(C)ccnc3C(C)C)c3nc(-c4c(F)cccc4F)c(F)cc23)C[C@H]1C (atropisomer, axis not shown; (M)) [Example 94-11, (M)-7-(2,6-Difluorophenyl)-4-[(2S,5R)-2,5-dimethyl-4-prop-2-enoyl-piperazin-1-yl]-6-fluoro-1-(2-isopropyl-4-methyl-3-pyridyl)pyrido [2,3-d]pyrimidin-2-one] | 0.844 µM | –
C=CC(=O)N1CCN(c2nc(=O)n(CC(C)(C)C)c3nc(Cl)c(Cl)cc23)CC1 [Example 100-5, 6,7-Dichloro-1-(2,2-dimethylpropyl)-4-(4-prop-2-enoylpiperazin-1-yl)pyrido[2,3-d]pyrimidin-2-one] | 58.3 µM | –
C=CC(=O)N1C[C@H](C)N(c2nc(=O)n(-c3c(N(C)C)ccnc3C(C)C)c3nc(-c4c(F)cccc4NC(=O)CC)c(Cl)cc23)C[C@H]1C (single isomer, unassigned) [Example 122-2-1] | 17.3 µM | –
C=CC(=O)N1C[C@H](C)N(c2nc(=O)n(-c3c(CN(C)C)ncnc3C(C)C)c3nc(-c4ccccc4F)c(Cl)cc23)C[C@H]1C (single isomer, unassigned) [Example 80-18-1] | 1.39 µM | –
C=CC(=O)N1C[C@H](C)N(c2nc(=O)n(-c3c(C)ccnc3C(C)C)c3nc(N4CCCCC4)c(Cl)cc23)C[C@H]1C (atropisomer, axis not shown; (M)) [Example 69-11, (M)-6-Chloro-4-[(2S,5R)-2,5-dimethyl-4-prop-2-enoyl-piperazin-1-yl]-1-(2-isopropyl-4-methyl-3-pyridyl)-7-(1-piperidyl)pyrido[2,3-d]pyrimidin-2-one] | 1.14 µM | –
C=CC(=O)N1C[C@H](C)N(c2nc(=O)n(-c3c(C)cc(P(C)(C)=O)cc3C(C)C)c3nc(-c4ccccc4F)c(Cl)cc23)C[C@H]1C (single isomer, unassigned) [Example 102-7-2] | 5.28 µM | –
C=CC(=O)N1C[C@H](C)N(c2nc(=O)n(-c3c(N(C)C)ccnc3C(C)C)c3nc(-c4c(F)cccc4NC(=O)C4CC4)c(Cl)cc23)C[C@H]1C (single isomer, unassigned) [Example 122-3-1] | 6.82 µM | –
C=CC(=O)N1CCN(c2nc(=O)n(-c3c(C)ccnc3C(C)C)c3nc(Cl)c(Cl)cc23)CC1CC#N (atropisomer, axis not shown; (M)) [Example 144-2-1, (M)-2-[4-[6,7-Dichloro-1-(2-isopropyl-4-methyl-3-pyridyl)-2-oxo-pyrido[2,3-d]pyrimidin-4-yl]-1-prop-2-enoyl-piperazin-2-yl]acetonitrile] | 63.7 µM | –
C=CC(=O)N1C[C@H](C)N(c2nc(=O)n(-c3c(C(C)C)cc(N4CCC4)nc3C(C)C)c3nc(-c4ccccc4F)c(Cl)cc23)C[C@H]1C (single isomer, unassigned) [Example 182-1] | – | Coupled exchange IC50 (5 min; μM) [1]: 0.14 µM
